In a compilation of properties of binary mixtures (doi:10.1016/j.molliq.2016.08.084):

Test: xn = mol fraction of the nth substance listed
Conditions: 101 kPa

CCCC[n+]1ccn(C)c1.F[B-](F)(F)F + O
viscosity [mPa·s]
Conditions	293.15 K	298.15 K	303.15 K	313.15 K	323.15 K	333.15 K	343.15 K	353.15 K	363.15 K	373.15 K
x2 = 0	133.5	–	78.8	50.52	34.52	–	18.69	14.54	11.64	–
x2 = 0.034	–	88.8	69.8	45.58	31.56	22.98	17.44	13.67	–	9.06
x2 = 0.0615	–	–	–	41.37	–	21.4	16.34	12.87	–	–
x2 = 0.1135	81.4	–	51.7	–	25.01	–	14.45	–	9.39	7.83
x2 = 0.2063	56.3	45.4	37.2	26.09	19.17	14.66	11.59	9.4	7.79	6.6
x2 = 0.2802	42	34.4	28.7	20.59	15.49	12.06	9.64	7.91	–	5.71
x2 = 0.3977	–	–	19	14.1	10.89	8.67	7.11	–	5.16	4.54
